14 molecules from US10611740B2, “Aryl dihydro-2H-benzo[b][1,4]oxazine sulfonamide and related compounds for use as agonists of RORγ and the treatment of disease” (Lycera Corporation, priority 2015, dated 2020) can be followed below.

The target of one assay is T1, Gal4-RORγ-LBD (Homo sapiens, UniProt P51449).
T1 construct: expressed in transfected cells; host or cells: HEK-293 cells (pcDNA3.1neo plasmid)
T1 sequence (P51449 269-508 limits assumed): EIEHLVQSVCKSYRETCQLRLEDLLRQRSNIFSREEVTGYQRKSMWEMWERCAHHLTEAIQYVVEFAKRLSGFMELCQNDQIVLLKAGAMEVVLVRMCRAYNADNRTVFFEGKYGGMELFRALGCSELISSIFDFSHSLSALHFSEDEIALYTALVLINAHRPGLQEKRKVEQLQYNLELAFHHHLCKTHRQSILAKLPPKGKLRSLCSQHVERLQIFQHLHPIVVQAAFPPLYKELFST
The assay can be described thus: Gal4-RORγ Luciferase Reporter Assay in HEK-293T Cells. Particulars: HEK-293 cells. The format is cell-based. The gist of the method:
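In transfected HEK-293 cells (Gal4-RORγ-LBD, Gal4-luciferase), test agents with 2 μM ursolic acid were incubated overnight at 37 °C before luminescent detection. Values are relative to the ursolic-acid-free, compound-free signal (100).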
A general note: In a reporter assay the amount or activity of a reporter protein is the signal.

The next assay concerns the target T2, RORγ-LBD (Homo sapiens, UniProt P51449).
T2 construct: made in house; host or cells: SF9 cells (baculovirus)
T2 sequence (P51449 269-508 limits assumed): T1 sequence (P51449 269-508 limits assumed)
Description: RORγ-Ligand Binding Domain (LBD) TR-FRET Assay.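 For TR-FRET Assay Max Response: 665/615 nm ratio relative to signal without ursolic acid or compound set at 100.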 Type of assay: biochemical. The gist of the method:
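Lysate from SF9 cells expressing His-RORγ-LBD is diluted to about 3 nM final in 50 mM Tris pH 7.0 assay buffer. A biotin-tagged SRC1 LXXLL peptide goes in at 200 nM final, plus ursolic acid at 2 μM final. Test compounds carry 1% DMSO final; signal read by TR-FRET.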
Background: TR-FRET usually uses a lanthanide donor and a delayed reading to cut background.

Setting [1] is: luciferase reporter, with 2 μM ursolic acid.

A word on the EC50: it is the concentration that produces a half-maximal response. Read a low EC50 as a more potent agent.

For the molecule `CN(C)c1cccc(-c2ccc3c(c2)N(S(=O)(=O)c2cccc(C(F)(F)F)c2)C[C@H](CNC(=O)C2CC2)O3)n1` [Compound 30BC, (S)-N-((6-(6-(dimethylamino)-pyridin-2-yl)-4-((3-(trifluoro-methyl)phenyl)sulfonyl)-3,4-dihydro-2H-benzo[b][1,4]-oxazin-2-yl)methyl)cyclo-propanecarboxamide], at Gal4-RORγ-LBD (setting [1]), the EC50 is less than 500 nM and the “Gal4-RORγ Assay Max Response” value is reported as “** (The symbol “**” indicates a value in the range of greater than 90 to 150)”. Also, at RORγ-LBD, the concentration for a half-maximal effect (EC50) is less than 500 nM and the “TR-FRET Assay Max Response” value is on record as “*** (The symbol “***” indicates a value in the range of greater than 150 to 200)”.

Consider `COc1cc(-c2ccc3c(c2)N(S(=O)(=O)c2cccc(C(F)(F)F)c2)C[C@H](CCc2n[nH]c(=O)o2)O3)nc(N(C)C)c1` [Compound 28H, (S)-5-(2-(6-(6-(dimethylamino)-4-methoxypyridin-2-yl)-4-((3-(trifluoromethyl)phenyl)sulfonyl)-3,4-dihydro-2H-benzo[b][1,4]-oxazin-2-yl)ethyl)-1,3,4-oxadiazol-2(3H)-one], for which, on Gal4-RORγ-LBD (setting [1]), the half-maximal effective concentration (EC50) is less than 500 nM and the “Gal4-RORγ Assay Max Response” value is given as “* (The symbol “*” indicates a value in the range of 25 to 90)”. For the same molecule, at RORγ-LBD, the EC50 is less than 500 nM and the “TR-FRET Assay Max Response” value is reported as “**** (The symbol “****” indicates a value greater than 200)”.

As to `CC(C)(F)C(=O)NC[C@H]1CN(S(=O)(=O)c2cccc(C(F)(F)F)c2)c2cc(-c3cc(F)ccc3F)ccc2O1` [Compound 30BE, (S)-N-((6-(2,5-difluorophenyl)-4-((3-(trifluoromethyl)phenyl)-sulfonyl)-3,4-dihydro-2H-benzo[b][1,4]oxazin-2-yl)methyl)-2-fluoro-2-methylpropanamide], on Gal4-RORγ-LBD (setting [1]), the EC50 was less than 500 nM and the “Gal4-RORγ Assay Max Response” value is given as “* (The symbol “*” indicates a value in the range of 25 to 90)”. In addition, on RORγ-LBD, the 50% effective concentration (EC50) is less than 500 nM and the “TR-FRET Assay Max Response” value is on record as “*** (The symbol “***” indicates a value in the range of greater than 150 to 200)”.

As for `COc1cc(S(=O)(=O)N2C[C@H](CCc3n[nH]c(=O)o3)Oc3ccc(-c4cc(F)ccc4F)cc32)ccc1F` [Compound 28J, (S)-5-(2-(6-(2,5-difluorophenyl)-4-((4-fluoro-3-methoxyphenyl)-sulfonyl)-3,4-dihydro-2H-benzo[b][1,4]oxazin-2-yl)ethyl)-1,3,4-oxadiazol-2(3H)-one], at Gal4-RORγ-LBD (setting [1]), the 50% effective concentration (EC50) was less than 500 nM and the “Gal4-RORγ Assay Max Response” value is given as “** (The symbol “**” indicates a value in the range of greater than 90 to 150)”. Further, at RORγ-LBD, the concentration for a half-maximal effect (EC50) is less than 500 nM and the “TR-FRET Assay Max Response” value was “**** (The symbol “****” indicates a value greater than 200)”.

As to `CC(C)(C[C@H]1CN(S(=O)(=O)c2cccc(C(F)(F)F)c2)c2cc(-c3cc(F)ccc3F)ccc2O1)C(=O)O` [Compound 31, (S)-3-(6-(2,5-difluorophenyl)-4-((3-(trifluoromethyl)phenyl)sulfonyl)-3,4-dihydro-2H-benzo[b][1,4]oxazin-2-yl)-2,2-dimethylpropanoic Acid], at Gal4-RORγ-LBD (setting [1]), the EC50 is less than 500 nM and the “Gal4-RORγ Assay Max Response” value is reported as “** (The symbol “**” indicates a value in the range of greater than 90 to 150)”. At RORγ-LBD, the concentration for a half-maximal effect (EC50) was less than 500 nM and the “TR-FRET Assay Max Response” value is listed as “**** (The symbol “****” indicates a value greater than 200)”.

For the molecule `O=C1CC[C@@](C[C@H]2CN(S(=O)(=O)c3cccc(C(F)(F)F)c3)c3cc(-c4cc(F)ccc4F)ccc3O2)(C(=O)O)N1` [Compound 75, (R)-2-(((S)-6-(2,5-difluorophenyl)-4-((3-(trifluoromethyl)phenyl)sulfonyl)-3,4-dihydro-2H-benzo[b][1,4]oxazin-2-yl)methyl)-5-oxopyrrolidine-2-carboxylic acid], at Gal4-RORγ-LBD (2 μM ursolic acid), the EC50 is 5000 to 10000 nM and the “Gal4-RORγ Assay Max Response” value is “*** (The symbol “***” indicates a value in the range of greater than 150 to 200)”. At RORγ-LBD, the EC50 is less than 500 nM and the “TR-FRET Assay Max Response” value was “** (The symbol “**” indicates a value in the range of greater than 90 to 150)”.

With `Cc1cccc(C)c1-c1ccc2c(c1)N(S(=O)(=O)c1cccc(C(F)(F)F)c1)C[C@H](CC(C)(C)C(=O)O)O2` [Compound 32BA, (S)-3-(6-(2,6-dimethylphenyl)-4-((3-(trifluoromethyl)phenyl)-sulfonyl)-3,4-dihydro-2H-benzo[b][1,4]oxazin-2-yl)-2,2-dimethylpropanoic acid], at Gal4-RORγ-LBD (2 μM ursolic acid), the 50% effective concentration (EC50) fell in the range of 500 to 5000 nM and the “Gal4-RORγ Assay Max Response” value is “** (The symbol “**” indicates a value in the range of greater than 90 to 150)”. In addition, on RORγ-LBD, the EC50 was less than 500 nM and the “TR-FRET Assay Max Response” value is listed as “*** (The symbol “***” indicates a value in the range of greater than 150 to 200)”.

As for `COc1cccc(-c2ccc3c(c2)N(S(=O)(=O)c2cccc(C(F)(F)F)c2)C[C@H](CCC(=O)O)O3)n1` [Compound 4E, (S)-3-(6-(6-methoxypyridin-2-yl)-4-((3-(trifluoromethyl)-phenyl)sulfonyl)-3,4-dihydro-2H-benzo[b][1,4]oxazin-2-yl)propanoic acid], at Gal4-RORγ-LBD (setting [1]), the EC50 fell in the range of 500 to 5000 nM and the “Gal4-RORγ Assay Max Response” value was “** (The symbol “**” indicates a value in the range of greater than 90 to 150)”. Besides, on RORγ-LBD, the concentration giving a half-maximal response (EC50) is less than 500 nM and the “TR-FRET Assay Max Response” value was “**** (The symbol “****” indicates a value greater than 200)”.

As for `O=C(O)CC[C@H]1CN(S(=O)(=O)c2cccc(C(F)(F)F)c2)c2cc(-c3ncc4ccccn34)ccc2O1` [Compound 4N, (S)-3-(6-(imidazo[1,5-a]pyridin-3-yl)-4-((3-(trifluoromethyl)-phenyl)sulfonyl)-3,4-dihydro-2H-benzo[b][1,4]oxazin-2-yl)propanoic acid], at Gal4-RORγ-LBD (setting [1]), the EC50 lay within 500 to 5000 nM and the “Gal4-RORγ Assay Max Response” value is given as “** (The symbol “**” indicates a value in the range of greater than 90 to 150)”. For the same molecule, at RORγ-LBD, the EC50 is less than 500 nM and the “TR-FRET Assay Max Response” value was “**** (The symbol “****” indicates a value greater than 200)”.

Regarding `O=C(O)CC[C@H]1CN(S(=O)(=O)c2cccc(C(F)(F)F)c2)c2cc(-c3cc(F)cc(F)c3Cl)c(Cl)cc2O1` [Compound 22G, (S)-3-(7-chloro-6-(2-chloro-3,5-difluorophenyl)-4-((3-(trifluoromethyl)phenyl)sulfonyl)-3,4-dihydro-2H-benzo[b][1,4]-oxazin-2-yl)propanoic acid], at Gal4-RORγ-LBD (setting [1]), the 50% effective concentration (EC50) was less than 500 nM and the “Gal4-RORγ Assay Max Response” value was “** (The symbol “**” indicates a value in the range of greater than 90 to 150)”. Also, at RORγ-LBD, the EC50 is less than 500 nM and the “TR-FRET Assay Max Response” value is recorded as “*** (The symbol “***” indicates a value in the range of greater than 150 to 200)”.

Take `COc1cc(S(=O)(=O)N2C[C@H](CNS(=O)(=O)N(C)CCO)Oc3ccc(-c4cc(F)ccc4F)cc32)ccc1F` [Compound 45D, ([[(2S)-6-(2,5-difluorophenyl)-4-[[4-fluoro-3-methoxy-benzene]-sulfonyl]-3,4-dihydro-2H-1,4-benzoxazin-2-yl]methyl]sulfamoyl)-(N-methyl-N-2-hydroxyethyl)-amine]: on Gal4-RORγ-LBD (2 μM ursolic acid), the EC50 is less than 500 nM and the “Gal4-RORγ Assay Max Response” value was “* (The symbol “*” indicates a value in the range of 25 to 90)”. On RORγ-LBD, the EC50 was less than 500 nM and the “TR-FRET Assay Max Response” value was “*** (The symbol “***” indicates a value in the range of greater than 150 to 200)”.

Take `CNc1cccc(-c2ccc3c(c2)N(S(=O)(=O)c2cccc(C(F)(F)F)c2)C[C@H](CCC(=O)O)O3)n1` [Compound 4AM, (S)-3-(6-(6-(methylamino)-pyridin-2-yl)-4-((3-(trifluoromethyl)phenyl)-sulfonyl)-3,4-dihydro-2H-benzo[b][1,4]oxazin-2-yl)propanoic acid]: on Gal4-RORγ-LBD (setting [1]), the EC50 was 500 to 5000 nM and the “Gal4-RORγ Assay Max Response” value was “** (The symbol “**” indicates a value in the range of greater than 90 to 150)”. Besides, at RORγ-LBD, the 50% effective concentration (EC50) was less than 500 nM and the “TR-FRET Assay Max Response” value is “**** (The symbol “****” indicates a value greater than 200)”.

In the case of `Cc1c(Cl)cccc1-c1ccc2c(c1)N(S(=O)(=O)c1cccc(C(F)(F)F)c1)C[C@H](CC(C)(C)C(=O)O)O2` [Compound 32AZ, (S)-3-(6-(3-chloro-2-methyl-phenyl)-4-((3-(trifluoromethyl)-phenyl)sulfonyl)-3,4-dihydro-2H-benzo[b][1,4]oxazin-2-yl)-2,2-dimethylpropanoic acid], at Gal4-RORγ-LBD (2 μM ursolic acid), the half-maximal effective concentration (EC50) is less than 500 nM and the “Gal4-RORγ Assay Max Response” value is recorded as “** (The symbol “**” indicates a value in the range of greater than 90 to 150)”. Moreover, at RORγ-LBD, the EC50 was less than 500 nM and the “TR-FRET Assay Max Response” value was “** (The symbol “**” indicates a value in the range of greater than 90 to 150)”.

Take `O=C(O)C1CCN(C(=O)CC[C@H]2CN(S(=O)(=O)c3cccc(C(F)(F)F)c3)c3cc(-c4cccc(F)c4F)cc(F)c3O2)CC1` [Compound 23I, (S)-1-(3-(6-(2,3-difluorophenyl)-8-fluoro-4-((3-(trifluoromethyl)phenyl)sulfonyl)-3,4-dihydro-2H-benzo[b][1,4]oxazin-2-yl)propanoyl)piperidine-4-carboxylic acid]: on Gal4-RORγ-LBD (setting [1]), the EC50 is less than 500 nM and the “Gal4-RORγ Assay Max Response” value is “** (The symbol “**” indicates a value in the range of greater than 90 to 150)”. Moreover, at RORγ-LBD, the EC50 is less than 500 nM and the “TR-FRET Assay Max Response” value is “**** (The symbol “****” indicates a value greater than 200)”.
